Test results published in patent US20240174634A1, “Aldehyde Dehydrogenase Inhibitors and Their Therapeutic Use” (priority 2020, published 2024).

Target: T1, ALDH1A3 (Homo sapiens, UniProt P47895)
T1 sequence (P47895 1-512): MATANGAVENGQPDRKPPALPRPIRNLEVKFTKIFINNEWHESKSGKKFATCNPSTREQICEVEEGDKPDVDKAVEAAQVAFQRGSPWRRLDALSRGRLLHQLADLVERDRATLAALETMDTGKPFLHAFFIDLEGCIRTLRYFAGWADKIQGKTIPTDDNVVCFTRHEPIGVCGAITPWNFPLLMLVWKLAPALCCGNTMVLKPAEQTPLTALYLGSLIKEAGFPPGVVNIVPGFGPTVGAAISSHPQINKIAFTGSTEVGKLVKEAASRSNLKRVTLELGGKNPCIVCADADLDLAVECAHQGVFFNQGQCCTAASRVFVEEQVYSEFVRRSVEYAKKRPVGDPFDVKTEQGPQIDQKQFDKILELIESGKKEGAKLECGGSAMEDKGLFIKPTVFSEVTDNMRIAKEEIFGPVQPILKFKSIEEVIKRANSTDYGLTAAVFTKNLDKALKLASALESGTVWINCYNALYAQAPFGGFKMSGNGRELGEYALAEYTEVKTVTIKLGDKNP
Assay: Primary biochemical assay, NAD(P)H-Glo Detection System
Set-up: His-tag; made in house; host or cells: E. coli Rosetta (DE3)
Settings: 30 min pre-incubation, propionaldehyde and NAD at Km
Outline: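 Recombinant full-length His-tagged human enzymes expressed in E. coli were pre-incubated 30 min at room temperature with compound (10-point, 3-fold series; top 20 μM for ALDH1A3, 250 μM for ALDH1A1/1A2). Propionaldehyde and NAD were then added at Km; NADH was read by NAD(P)H-Glo luminescence. Buffer: Tris (pH 7.6 for 1A1/1A2, 9.0 for 1A3), 1 mM TCEP, 0.01% Tween-20.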

Row | Structure (SMILES) | IC50
1 | O=C1CCc2cc(OCCN3CCCC3c3cccc(F)c3)c(F)cc2N1 (stereo not shown) [ALDHI-2050, 7-fluoro-6-[2-[2-(3-fluorophenyl)pyrrolidin-1-yl]ethoxy]-3,4-dihydro-1H-quinolin-2-one] | < 100 nM
2 | O=C1CCc2cc(OCCN(CCO)Cc3cccc(F)c3)ccc2N1 [ALDHI-3002, 6-[2-[(3-fluorophenyl)methyl-(2-hydroxyethyl)amino]ethoxy]-3,4-dihydro-1H-quinolin-2-one] | < 100 nM
3 | CCC1Oc2cc(OCCN3CCCC3c3cccc(F)c3)ccc2NC1=O (stereo not shown) [ALDHI-2045, 2-ethyl-7-[2-[2-(3-fluorophenyl)pyrrolidin-1-yl]ethoxy]-4H-1,4-benzoxazin-3-one] | < 100 nM
4 | CN(C)c1nc(-c2cccc(F)c2)c(C(=O)Nc2ccc3c(c2)CCC(=O)N3)s1 [ALDHI-1002, 2-(dimethylamino)-4-(3-fluorophenyl)-N-(2-oxo-3,4-dihydro-1H-quinolin-6-yl)thiazole-5-carboxamide] | < 100 nM
5 | Cc1nc(C2CCCN2CCOc2ccc3c(c2)CCC(=O)N3)cs1 (stereo not shown) [ALDHI-2033, 6-[2-[2-(2-methylthiazol-4-yl)pyrrolidin-1-yl]ethoxy]-3,4-dihydro-1H-quinolin-2-one] | 100 to 1000 nM
6 | O=c1ccc2cc(OCCN3CCCC3c3cccc(F)c3)ccc2[nH]1 (stereo not shown) [ALDHI-2022, 6-[2-[2-(3-fluorophenyl)pyrrolidin-1-yl]ethoxy]-1H-quinolin-2-one] | < 100 nM
7 | CN(CCOc1ccc2c(c1)CCC(=O)N2)C(=O)c1cccc(F)c1 [ALDHI-3008, 3-fluoro-N-methyl-N-[2-[(2-oxo-3,4-dihydro-1H-quinolin-6-yl)oxy]ethyl]benzamide] | 100 to 1000 nM
8 | O=C1CCc2cc(NC(=O)c3cncnc3-c3cccc(F)c3)ccc2N1 [ALDHI-1018, 4-(3-fluorophenyl)-N-(2-oxo-3,4-dihydro-1H-quinolin-6-yl)pyrimidine-5-carboxamide] | 100 to 1000 nM
9 | Cc1cccc(C2CCCN2CCOc2ccc3c(c2)CCC(=O)N3)c1 (stereo not shown) [ALDHI-2011, 6-[2-[2-(m-tolyl)pyrrolidin-1-yl]ethoxy]-3,4-dihydro-1H-quinolin-2-one] | 100 to 1000 nM
10 | Cc1ccc(C2CCCN2CCOc2ccc3c(c2)CCC(=O)N3)cc1 (stereo not shown) [ALDHI-2010, 6-[2-[2-(p-tolyl)pyrrolidin-1-yl]ethoxy]-3,4-dihydro-1H-quinolin-2-one] | < 100 nM
11 | O=C1CCc2cc(OCCN3CC(F)CC3c3cccc(F)c3)ccc2N1 (stereo not shown) [ALDHI-2052, 6-[2-[4-fluoro-2-(3-fluorophenyl)pyrrolidin-1-yl]ethoxy]-3,4-dihydro-1H-quinolin-2-one] | < 100 nM
12 | O=C1CCc2cc(OCCN3CCCC3c3ccccc3)ccc2N1 (stereo not shown) [ALDHI-2019, 6-[2-(2-phenylpyrrolidin-1-yl)ethoxy]-3,4-dihydro-1H-quinolin-2-one] | 100 to 1000 nM
13 | CC1(C)Oc2cc(OCCN3CCCC3c3cccc(F)c3)ccc2NC1=O (stereo not shown) [ALDHI-2043, 7-[2-[2-(3-fluorophenyl)pyrrolidin-1-yl]ethoxy]-2,2-dimethyl-4H-1,4-benzoxazin-3-one] | 100 to 1000 nM
14 | O=C1COc2cc(NC(=O)c3scnc3-c3cccc(F)c3)ccc2N1 [ALDHI-1016, 4-(3-fluorophenyl)-N-(3-oxo-4H-1,4-benzoxazin-7-yl)thiazole-5-carboxamide] | 100 to 1000 nM
15 | CN(CCOc1ccc2c(c1)CCC(=O)N2)Cc1cccc(F)c1 [ALDHI-3001, 6-[2-[(3-fluorophenyl)methyl-methyl-amino]ethoxy]-3,4-dihydro-1H-quinolin-2-one] | 100 to 1000 nM
16 | CN(CCOc1ccc2c(c1)CCC(=O)N2)C(=O)c1cccnc1 [ALDHI-3013, N-methyl-N-[2-[(2-oxo-3,4-dihydro-1H-quinolin-6-yl)oxy]ethyl]pyridine-3-carboxamide] | 100 to 1000 nM
17 | O=C1CCc2cc(NC(=O)c3scnc3-c3ccc(F)cc3)ccc2N1 [ALDHI-1017, 4-(4-fluorophenyl)-N-(2-oxo-1,2,3,4-tetrahydroquinolin-6-yl)thiazole-5-carboxamide] | < 100 nM
18 | O=C1CCc2cc(OCCN3CCCC3c3ccccc3F)ccc2N1 (stereo not shown) [ALDHI-2002, 6-[2-[2-(2-fluorophenyl)pyrrolidin-1-yl]ethoxy]-3,4-dihydro-1H-quinolin-2-one] | < 100 nM
19 | O=C1CSc2cc(OCCN3CCCC3c3cccnc3)ccc2N1 (stereo not shown) [ALDHI-2028, 7-[2-[2-(3-pyridyl)pyrrolidin-1-yl]ethoxy]-4H-1,4-benzothiazin-3-one] | < 100 nM
20 | O=C1CCc2cc(OCCN3CCOCC3c3cccc(F)c3)ccc2N1 (stereo not shown) [ALDHI-2031, 6-[2-[3-(3-fluorophenyl)morpholin-4-yl]ethoxy]-3,4-dihydro-1H-quinolin-2-one] | < 100 nM

Row | Structure (SMILES) | IC50
21 | O=C1CCc2cc(OCCN3C(=O)CCC3c3ccccc3)ccc2N1 (stereo not shown) [ALDHI-2051, 6-[2-(2-oxo-5-phenyl-pyrrolidin-1-yl)ethoxy]-3,4-dihydro-1H-quinolin-2-one] | < 100 nM
22 | O=C1CSc2cc(OCCN3CCCC3c3ccncc3)ccc2N1 (stereo not shown) [ALDHI-2029, 7-[2-[2-(4-pyridyl)pyrrolidin-1-yl]ethoxy]-4H-1,4-benzothiazin-3-one] | 100 to 1000 nM
23 | O=C1CCc2cc(NC(=O)c3sc(N4CC(O)C4)nc3-c3cccc(F)c3)ccc2N1 [ALDHI-1004, 4-(3-fluorophenyl)-2-(3-hydroxyazetidin-1-yl)-N-(2-oxo-3,4-dihydro-1H-quinolin-6-yl)thiazole-5-carboxamide] | < 100 nM
24 | Cc1ccccc1C1CCCN1CCOc1ccc2c(c1)CCC(=O)N2 (stereo not shown) [ALDHI-2012, 6-[2-[2-(o-tolyl)pyrrolidin-1-yl]ethoxy]-3,4-dihydro-1H-quinolin-2-one] | 100 to 1000 nM
25 | O=C1CCc2cc(NC(=O)c3c[nH]nc3-c3cccc(F)c3)ccc2N1 [ALDHI-1006, 3-(3-fluorophenyl)-N-(2-oxo-1,2,3,4-tetrahydroquinolin-6-yl)-1H-pyrazole-4-carboxamide] | 100 to 1000 nM
26 | C[C@H](c1ccccc1)N(CCO)CCOc1ccc2c(c1)CCC(=O)N2 [ALDHI-3006, 6-[2-[2-hydroxyethyl-[(1R)-1-phenylethyl]amino]ethoxy]-3,4-dihydro-1H-quinolin-2-one] | 100 to 1000 nM
27 | O=C1CCc2cc(OCCN3CCCC3c3cc(F)cc(F)c3)ccc2N1 (stereo not shown) [ALDHI-2032, 6-[2-[2-(3,5-difluorophenyl)pyrrolidin-1-yl]ethoxy]-3,4-dihydro-1H-quinolin-2-one] | < 100 nM
28 | CN(CCOc1ccc2c(c1)CCC(=O)N2)Cc1cccnc1 [ALDHI-3010, 6-[2-[methyl(3-pyridylmethyl)amino]ethoxy]-3,4-dihydro-1H-quinolin-2-one] | 100 to 1000 nM
29 | O=C1CCc2cc(OCCn3nccc3-c3cccc(F)c3)ccc2N1 [ALDHI-2023, 6-[2-[5-(3-fluorophenyl)pyrazol-1-yl]ethoxy]-3,4-dihydro-1H-quinolin-2-one] | < 100 nM
30 | O=C1CCc2cc(NC(=O)c3ocnc3-c3cccc(F)c3)ccc2N1 [ALDHI-1019, 4-(3-fluorophenyl)-N-(2-oxo-3,4-dihydro-1H-quinolin-6-yl)oxazole-5-carboxamide] | 100 to 1000 nM
31 | O=C1CCc2cc(NC(=O)c3ncsc3-c3ccsc3)ccc2N1 [ALDHI-1011, N-(2-oxo-3,4-dihydro-1H-quinolin-6-yl)-5-(3-thienyl)thiazole-4-carboxamide] | 100 to 1000 nM
32 | O=C1CCc2cc(NC(=O)c3scnc3-c3cccs3)ccc2N1 [ALDHI-1023, N-(2-oxo-3,4-dihydro-1H-quinolin-6-yl)-4-(2-thienyl)thiazole-5-carboxamide] | < 100 nM
33 | Cc1cccc(-c2ncsc2C(=O)Nc2ccc3c(c2)CCC(=O)N3)c1 [ALDHI-1013, 4-(m-tolyl)-N-(2-oxo-3,4-dihydro-1H-quinolin-6-yl)thiazole-5-carboxamide] | 1000 to 10000 nM
34 | O=C1CCc2cc(NC(=O)c3ncsc3-c3cccnc3)ccc2N1 [ALDHI-1010, N-(2-oxo-3,4-dihydro-1H-quinolin-6-yl)-5-(3-pyridyl)thiazole-4-carboxamide] | 1000 to 10000 nM
35 | O=C1CCc2cc(OCCN3CC(F)(F)CC3c3cccc(F)c3)ccc2N1 (stereo not shown) [ALDHI-2053, 6-[2-[4,4-difluoro-2-(3-fluorophenyl)pyrrolidin-1-yl]ethoxy]-3,4-dihydro-1H-quinolin-2-one] | < 100 nM
36 | Cc1noc(-c2ccccc2C(=O)Nc2ccc3c(c2)CCC(=O)N3)n1 [ALDHI-1008, 2-(3-methyl-1,2,4-oxadiazol-5-yl)-N-(2-oxo-1,2,3,4-tetrahydroquinolin-6-yl)benzamide] | 100 to 1000 nM
37 | CCN(CC)CCN(CCOc1ccc2c(c1)CCC(=O)N2)Cc1ccccc1 [ALDHI-3004, 6-[2-[benzyl-[2-(diethylamino)ethyl]amino]ethoxy]-3,4-dihydro-1H-quinolin-2-one] | 100 to 1000 nM
38 | O=C1CCc2cc(OCCN(CCO)Cc3cccnc3)ccc2N1 [ALDHI-3005, 6-[2-[2-hydroxyethyl(3-pyridylmethyl)amino]ethoxy]-3,4-dihydro-1H-quinolin-2-one] | < 100 nM
39 | O=C1CSc2cc(OCCN3CCCC3c3ccccn3)ccc2N1 (stereo not shown) [ALDHI-2027, 7-[2-[2-(2-pyridyl)pyrrolidin-1-yl]ethoxy]-4H-1,4-benzothiazin-3-one] | 100 to 1000 nM
40 | O=C1CCc2cc(OCCN3CCCC3c3ccncc3)ccc2N1 (stereo not shown) [ALDHI-2004, 6-[2-[2-(4-pyridyl)pyrrolidin-1-yl]ethoxy]-3,4-dihydro-1H-quinolin-2-one] | 100 to 1000 nM
